Consider 2 compounds from patent publication US20170246144A1, “METHOD OF PREVENTING OR TREATING SPINOCEREBELLAR ATAXIA BY ADMINISTRATING SILIBININ” (National Taiwan Normal University, priority 2016, published 2017).

Format in all cases: cell-based, Human
The subject of experiment [1] is SH-SY5Y cells. The experiment in a line: JC-1 flow cytometry of mitochondria membrane potential (MMP). The procedure:
FIGS. 7A and 7B show the effects of SB on mitochondria membrane potential (MMP) in SH-SY5Y cells treated with MSG measured by JC-1 staining with a flow cytometry, wherein the control group (Ctrl) was untreated SH-SY5Y cells or the cells were treated with 100 mM MSG, 100 mM MSG+15 μM SB, 100 mM MSG+10 μM MK801 (MK) or 5 μM CCCP (disruptor of electron transport chain) for 12 hours. […] The results were shown as mean±SEM, n=3, *p<0.05, comparing to the MSG treatment group.
In the present embodiment, flow cytometry analysis was used to investigate whether silibinin can prevent the reduction of mitochondria membrane potential induced by glutamate in SH-SY5Y cells.
SH-SY5Y cells were seeded in 6 centimeter dish (1×10^6 cells/plate) for 24 hours, and then were pre-treated with 15 μM silibinin or 10 μM MK-801 for 1 hour followed by the treatment of 100 mM MSG for 12 hours. 5 μM carbonyl cyanide m-chlorophenylhydrazone (CCCP) was added to the positive control group to induce the depolarization of mitochondria membrane potential.
The treated cells were washed, centrifuged and collected, followed by PBS wash and JC-1 dye staining for 30 minutes. The stained cells were re-suspended using phosphate buffer solution and analyzed by a flow cytometry to obtain a 2-dimensional scatter plot. 10,000 cells were recorded for each experiment.

Experiment [2] deals with SH-SY5Y cells. The experiment in a line: Annexin V-FITC/PI flow cytometry, apoptosis induced by MSG. Particulars: 10 μM, 100 mM MSG, 24 hours. The procedure:
1×10^6 SH-SY5Y cells were treated with 100 mM MSG and 15 μM SB or 10 μM MK801 (MK) for 24 hours. Cells were stained with Annexin-V/PI and the apoptosis was measured with a flow cytometry.
In order to detect the effects of silibinin in inhibiting the apoptosis induced by glutamate in SH-SY5Y cells. The cells were measured by flow cytometry using Annexin V-FITC/propidium iodide (PI) double-labeling method.
SH-SY5Y cells were seeded in dish and were treated with 100 mM MSG in combination of 15 μM silibinin or 10 μM MK801 for 24 hours. The cells were then trypsinized and collected by centrifugation at 2,000 rpm for […] followed by double-staining with Annexin V-FITC and PI. Stained cells were analyzed with a flow cytometry (FACS Sorter, Becton, Dickinson and Company). 10,000 cells were recorded in each experiment.
On the technique in general: A flow cytometer gives signals particle by particle.

Experiment [3] concerns SH-SY5Y cells. Put plainly: Chemiluminescence (luminol) analysis of ROS induced by MSG. The protocol: FIG. 6A: The ROS productions in 1×10^6 SH-SY5Y cells were measured by chemiluminescence (CL) analysis and luminol measurement, wherein the control group (Ctrl) was untreated SH-SY5Y cells or the cells were treated with 100 mM MSG, 100 mM MSG+15 μM SB or 100 mM MSG+10 μM MK801 (MK) for 24 hours.
It is known that the cyto-toxicity induced by glutamate is associated with mitochondria dysfunction and the increased production of ROS in neuron. In this embodiment, chemiluminescence analysis was performed to measure the level of ROS in order to understand whether silibinin can inhibit the accumulation of ROS associated with glutamatergic excitotoxicity. […] The emission spectrum was blue light which can be monitored by chemiluminescence detector.
SH-SY5Y cells were seeded in dish (1×10^6 cells/plate) for 24 hours, and then were pre-treated with 15 μM silibinin or 10 μM MK-801 for 1 hour followed by the treatment of 100 mM glutamate for 24 hours. The cells were then washed and suspended in 60 μL RIPA on ice bath followed by stirring and centrifugation at 13,000 rpm for […] at 4° C. The obtained protein sample (200 μL, 20 μg) was mixed with 0.5 mL of 0.2 mM luminol (Sigma). After 5 minutes, chemiluminescence analysis system (CLD-110, Tohoku Electronic Inc. Co. Japan) was performed to determine its chemiluminescence.

By inhibition is commonly meant the change of the read-out against control, counted positive when it falls.

For `N#CC(C#N)=NNc1cccc(Cl)c1` [CCCP, carbonyl cyanide m-chlorophenylhydrazone], the MMP retained in the experiment on SH-SY5Y cells [1] (5 μM CCCP, positive control, no MSG) is given as 18±10%.

As to `C[C@]12N[C@H](Cc3ccccc31)c1ccccc12` [MK801], the “apoptosis (apoptotic cells)” value with SH-SY5Y cells [2] was found to be 9.73%. Also, the “extracellular ROS” value with SH-SY5Y cells [3] (10 μM, 100 mM MSG, 24 hours) was “unchanged”. Besides, the inhibition at 10 µM in the experiment with SH-SY5Y cells [3] (Homo sapiens, SH-SY5Y, 24 h, read-out: inhibition of intracellular ROS) stood at 80%. In the experiment on SH-SY5Y cells [1] (10 μM + 100 mM MSG), the “MMP compared to Ctrl” value is listed as 90±5%.
